SMILES strings stand for the structures.

In patent US20070004660A1, “Synergistic Modulation of Flt3 Kinase Using Alkylquinolines and Alkylquinazolines” (priority 2005, published 2007) one finds IC50 data, which are given here for 22 compounds.

This test addresses T1, wild-type FLT3 receptor (Homo sapiens, UniProt P36888).
T1 construct: host or cells: Baf3 (murine B cell lymphoma line), stably transfected
T1 sequence (P36888 27-993): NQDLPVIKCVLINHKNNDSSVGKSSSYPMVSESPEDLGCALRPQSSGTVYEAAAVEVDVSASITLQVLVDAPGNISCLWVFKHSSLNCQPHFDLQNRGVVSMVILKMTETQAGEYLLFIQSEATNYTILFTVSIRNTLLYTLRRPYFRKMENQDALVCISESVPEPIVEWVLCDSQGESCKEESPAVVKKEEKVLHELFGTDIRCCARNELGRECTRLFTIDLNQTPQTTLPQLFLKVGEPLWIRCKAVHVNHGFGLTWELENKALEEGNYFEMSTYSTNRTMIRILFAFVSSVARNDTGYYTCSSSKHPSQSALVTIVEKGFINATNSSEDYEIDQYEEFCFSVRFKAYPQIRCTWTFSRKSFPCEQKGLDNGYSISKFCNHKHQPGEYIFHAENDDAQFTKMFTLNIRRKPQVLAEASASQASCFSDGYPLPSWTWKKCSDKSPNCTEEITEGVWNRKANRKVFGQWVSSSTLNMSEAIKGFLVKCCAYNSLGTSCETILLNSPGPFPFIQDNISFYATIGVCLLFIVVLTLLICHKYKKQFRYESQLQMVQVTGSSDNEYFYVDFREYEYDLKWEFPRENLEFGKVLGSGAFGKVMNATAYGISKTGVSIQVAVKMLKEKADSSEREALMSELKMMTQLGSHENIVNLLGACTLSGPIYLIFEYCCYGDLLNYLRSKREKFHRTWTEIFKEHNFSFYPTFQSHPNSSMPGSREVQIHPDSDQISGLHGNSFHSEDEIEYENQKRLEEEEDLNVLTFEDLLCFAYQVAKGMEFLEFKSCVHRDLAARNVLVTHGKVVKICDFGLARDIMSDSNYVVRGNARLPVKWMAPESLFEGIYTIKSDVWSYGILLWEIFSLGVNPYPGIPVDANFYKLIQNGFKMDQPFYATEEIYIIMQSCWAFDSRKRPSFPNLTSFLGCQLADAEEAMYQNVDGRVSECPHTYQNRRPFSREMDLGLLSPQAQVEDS
The test can be described thus: Cell-based FLT3 receptor ELISA (FLT ligand-induced phosphorylation in Baf3 FLT3 cells). The following applies: 100 ng/mL Flt ligand, uncertainty ±20%. The essentials: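 Receptor phosphotyrosine measured by sandwich ELISA (anti-FLT3 capture, HRP anti-pTyr, luminescence) in FLT3-transfected murine Baf3 cells given 1 h compound pretreatment and 10 min 100 ng/mL FLT ligand after overnight low-serum starvation; triplicates, IC50 from nonlinear regression.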
In turn, `O=C(Nc1ccc(N2CCCC2)cc1)N1CCC(c2ncnc3cc(OCCN4CCOC4=O)ccc23)CC1` [Example 147, 4-{7-[2-(2-Oxo-oxazolidin-3-yl)-ethoxy]-quinazolin-4-yl}-piperidine-1-carboxylic acid (4-pyrrolidin-1-yl-phenyl)-amide] came in with an IC50 of 0.2 nM. The compound `COCCN1CCN(c2ccc3c(C4CCN(C(=O)Nc5ccc(N6CCCC6)cc5)CC4)ncnc3c2)CC1` [Compound 186, 4-{7-[4-(2-Methoxy-ethyl)-piperazin-1-yl]-quinazolin-4-yl}-piperidine-1-carboxylic acid (4-pyrrolidin-1-yl-phenyl)-amide] came in with a 50% inhibitory concentration (IC50) of 3 nM. The same measure for `COc1cc2ncnc(C3CCN(C(=O)Nc4ccc(N5CCCCC5)cc4)CC3)c2cc1OC` [Example 19, 4-(6,7-Dimethoxy-quinazolin-4-yl)-piperidine-1-carboxylic acid (4-piperidin-1-yl-phenyl)-amide]: 17 nM; for `COc1cc2ncnc(C3CCN(C(=O)Nc4ccc(CO)cc4)CC3)c2cc1OC` [Example 22, 4-(6,7-Dimethoxy-quinazolin-4-yl)-piperidine-1-carboxylic acid (4-hydroxymethyl-phenyl)-amide]: 5100 nM. In turn, `CN(C)CC(=O)N1CCN(c2ccc3c(C4CCN(C(=O)Nc5ccc(N6CCOCC6)cc5)CC4)ncnc3c2)CC1` [Example 144, 4-{7-[4-(2-Dimethylamino-acetyl)-piperazin-1-yl]-quinazolin-4-yl}-piperidine-1-carboxylic acid (4-morpholin-4-yl-phenyl)-amide] gave an IC50 of 170 nM. `O=C(CO)N1CCN(c2ccc3c(C4CCN(C(=O)Nc5ccc(N6CCCC6)cc5)CC4)ncnc3c2)CC1` [Compound 201, 4-{7-[4-(2-Hydroxy-acetyl)-piperazin-1-yl]-quinazolin-7-yl}-piperidine-1-carboxylic acid (4-pyrrolidin-1-yl-phenyl)-amide] returned an IC50 of 65 nM. To `O=C(Nc1ccc(N2CCCC2)cc1)N1CCC(c2ncnc3cc(N4CCSCC4)ccc23)CC1` [Compound 182, 4-(7-Thiomorpholin-4-yl-quinazolin-4-yl)-piperidine-1-carboxylic acid (4-pyrrolidin-1-yl-phenyl)-amide] belongs 24 nM.

The compound `O=C(Nc1ccc(N2CCOCC2)cc1)N1CCC(c2ncnc3cc(N4CCC[C@@H]4CO)ccc23)CC1` [Example 132, (R)-4-[7-(2-Hydroxymethyl-pyrrolidin-1-yl)-quinazolin-4-yl]-piperidine-1-carboxylic acid (4-morpholin-4-yl-phenyl)-amide] had a 50% inhibitory concentration (IC50) of 27 nM.

The compound `O=C1CN(c2ccc3c(C4CCN(C(=O)Nc5ccc(N6CCCC6)cc5)CC4)ncnc3c2)CCN1` [Compound 183, 4-[7-(3-Oxo-piperazin-1-yl)-quinazolin-4-yl]-piperidine-1-carboxylic acid (4-pyrrolidin-1-yl-phenyl)-amide] displayed an IC50 of 31 nM.

Regarding `O=C(Nc1ccc(N2CCCC2)cc1)N1CCC(c2ncnc3cc(N4CCN(c5ccccn5)CC4)ccc23)CC1` [Compound 192, 4-[7-(4-Pyridin-2-yl-piperazin-1-yl)-quinazolin-4-yl]-piperidine-1-carboxylic acid (4-pyrrolidin-1-yl-phenyl)-amide], 1 nM corresponded to half-maximal inhibition (IC50). Take `O=C(Nc1ccc(N2CCCC2)cc1)N1CCC(c2ncnc3cc(OC4CCOCC4)ccc23)CC1` [Compound 189, 4-[7-(Tetrahydro-pyran-4-yloxy)-quinazolin-4-yl]-piperidine-1-carboxylic acid (4-pyrrolidin-1-yl-phenyl)-amide]: the midpoint of inhibition, the IC50, lay at 104 nM. Compound `O=C(Nc1ccc(N2CCOCC2)cc1)N1CCC(c2ncnc3cc(OCCCN4CCOCC4)ccc23)CC1` [Example 133, 4-[7-(3-Morpholin-4-yl-propoxy)-quinazolin-4-yl]-piperidine-1-carboxylic acid (4-morpholin-4-yl-phenyl)-amide] returned an IC50 of 26 nM. As for `CN1CCN(CCOc2ccc3c(C4CCN(C(=O)Nc5ccc(N6CCOCC6)cc5)CC4)ncnc3c2)CC1` [Example 156, 4-{7-[2-(4-Methyl-piperazin-1-yl)-ethoxy]-quinazolin-4-yl}-piperidine-1-carboxylic acid (4-morpholin-4-yl-phenyl)-amide], half-maximal inhibition (IC50) was put at 32 nM. `O=C(Nc1ccc(N2CCCC2)cc1)N1CCC(c2ncnc3cc(N4CCNC4=O)ccc23)CC1` [Compound 178, 4-[7-(2-Oxo-imidazolidin-1-yl)-quinazolin-4-yl]-piperidine-1-carboxylic acid (4-pyrrolidin-1-yl-phenyl)-amide] displayed a 50% inhibitory concentration (IC50) of 4 nM. With `O=C(Nc1ccc(N2CCCC2)cc1)N1CCC(c2ncnc3cc(OCC4CCOCC4)ccc23)CC1` [Compound 188, 4-[7-(Tetrahydro-pyran-4-ylmethoxy)-quinazolin-4-yl]-piperidine-1-carboxylic acid (4-pyrrolidin-1-yl-phenyl)-amide], the midpoint of inhibition, the IC50, lay at 93 nM. The compound `O=C(Nc1ccc(N2CCOCC2)cc1)N1CCC(c2ncnc3cc(N4CCC[C@H]4CO)ccc23)CC1` [Example 139, (S)-4-[7-(2-Hydroxymethyl-pyrrolidin-1-yl)-quinazolin-4-yl]-piperidine-1-carboxylic acid (4-morpholin-4-yl-phenyl)-amide] showed an IC50 of 211 nM. The compound `CN1CCN(c2ccc3c(C4CCN(C(=O)Nc5ccc(N6CCOCC6)cc5)CC4)ncnc3c2)CC1` [Example 135, 4-[7-(4-Methyl-piperazin-1-yl)-quinazolin-4-yl]-piperidine-1-carboxylic acid (4-morpholin-4-yl-phenyl)-amide] registered an IC50 of 27 nM. `O=C(Nc1ccc(N2CCOCC2)cc1)N1CCC(c2ncnc3cc(OCCN4CCOC4=O)ccc23)CC1` [Example 148, 4-{7-[2-(2-Oxo-oxazolidin-3-yl)-ethoxy]-quinazolin-4-yl}-piperidine-1-carboxylic acid (4-morpholin-4-yl-phenyl)-amide] had an IC50 of 83 nM. The same measure for `CCN1CCN(c2ccc3c(C4CCN(C(=O)Nc5ccc(N6CCOCC6)cc5)CC4)ncnc3c2)CC1` [Example 136, 4-[7-(4-Ethyl-piperazin-1-yl)-quinazolin-4-yl]-piperidine-1-carboxylic acid (4-morpholin-4-yl-phenyl)-amide]: 36 nM. To `O=C(Nc1ccc(N2CCCC2)cc1)N1CCC(c2ncnc3cc(N4CCOC4=O)ccc23)CC1` [Example 176, 4-[7-(2-Oxo-oxazolidin-3-yl)-quinazolin-4-yl]-piperidine-1-carboxylic acid (4-pyrrolidin-1-yl-phenyl)-amide] belongs 7 nM. To `O=C(COc1ccc2c(C3CCN(C(=O)Nc4ccc(N5CCCC5)cc4)CC3)ncnc2c1)N1CCOCC1` [Example 172, 4-[7-(2-Morpholin-4-yl-2-oxo-ethoxy)-quinazolin-4-yl]-piperidine-1-carboxylic acid (4-pyrrolidin-1-yl-phenyl)-amide] belongs 149 nM; to `CN1CCN(CCOc2ccc3c(C4CCN(C(=O)Nc5ccc(N6CCCC6)cc5)CC4)ncnc3c2)CC1=O` [Compound 202, 4-{7-[2-(4-Methyl-3-oxo-piperazin-1-yl)-ethoxy]-quinazolin-4-yl}-piperidine-1-carboxylic acid (4-pyrrolidin-1-yl-phenyl)-amide], 15 nM.
